Laboratory results reported in patent publication US20090117593A1, “T. Cruzi-derived neurotrophic agents and methods of use therefor” (Tufts University, priority 2006, published 2009).
Entries after “also recorded” stand apart in the source; their conditions may differ.

Columns and labels:
Assay type in all cases: cell-based
PC12^TrkA cells [1] = assay: Survival of PC12^TrkA cells in serum-free medium (MTT, DAPI); settings: peptides 10 μM, PDNF 500 ng/ml, NGF 30 ng/ml; 48 hours to 5 days
Protocol: (§1) PC12^nnr5 and PC12^TrkA cells were grown in RPMI with 10% FCS and 5% horse serum as described earlier (Green et al., J. Cell Biol. 102:830-843 (1986); Chuenkova and Pereira, Mol. Biol. Cell 11: 1487-1498 (2000)). Two approaches were used to study neurite extension: 1) Plating cells (1×10^5 cells/ml) on plastic wells (LABTECH 16-well slides, Nalge Nunc International, Naperville, Ill.) coated with synthetic peptides (100 μg/ml water, 4° C., overnight) or rat tail collagen (1 mg/ml PBS, 4° C., overnight). 2) Adding peptides in solution to cells plated on uncoated substratum. Cells were grown in 1% FCS-containing RPMI for 72 hours, and reacted with 0.5 mg/ml MTT (3-[4,5-dimethylthiazol-2-yl]-2,5-diphenyltetrazolium bromide) (SIGMA, St. Louis, Mo.) in serum-free medium for 1 hour at 37° C. Light microscopy was used to visualize viable cells (i.e., containing reduced insoluble formazan) with or without extended neurites (>5 μm in length). Cell viability was also determined using the CELLTITER 96 assay (Promega, Madison, Wis.) as follows: Cells, plated at 2×10^5/ml, were treated with peptides in serum-free medium for different times and exposed to CELLTITER 96 Aqueous One Solution for 1 hour at 37° C. 2) Apoptotic cells were identified by staining with DAPI (250 ng/ml) (SIGMA) 48 hours after cells were exposed to serum-free medium with or without additives in solution, as described earlier (Chuenkova and Pereira, Mol. Biol. Cell 11:1487-1498 (2000)). […]

[2] = tested on: PC12 cells or Schwann cells; assay: Inhibition of apoptosis of PC12 cells or Schwann cells by synthetic peptides
PC12^TrkA cells [3] = assay: Neurite extension of PC12^TrkA cells; settings: coated substratum or in medium (10 μM), 1% FCS
Protocol: as §1, with “C.” for “C. 2) Apoptotic cells were identified by staining with DAPI (250 ng/ml) (SIGMA) 48 hours after cells were exposed to serum-free medium with or without additives in solution, as described earlier (Chuenkova and Pereira, Mol. Biol. Cell 11:1487-1498 (2000)).”

Erk1/2 = Erk1/2 phosphorylation in PC12 cells; settings: 5 minutes; control peptides 10 μM
Protocol: Activation state of TrkA, Erk1/2 and Akt kinases and transcription factor CREB was analyzed by assessing phosphorylation by Western blot with appropriate phospho-specific antibodies. For this, cells were plated in complete medium at a density of 3×10^5 cells/ml overnight on 6-well plates (BECTON DICKINSON LABWARE, Franklin Lakes, N.J.). The medium was changed to serum-free medium and the cells cultured for an additional 24 hours to reduce background phosphorylation. […] Antibody reaction was visualized by horseradish peroxidase (HRP)-conjugated secondary antibody and enhanced chemiluminescence kit (ECL). Some blots were stripped in appropriate buffer (50 mM Tris HCl, pH 7.8, 2% SDS, 1% β-mercaptoethanol) at 50° C. for 60 minutes and re-probed with p42/44MAPK, Akt or CREB antibody to ensure equal loading of proteins. For immunoprecipitation experiments, cell lysates were pre-adsorbed on protein G-Sepharose for 1 hour at 4° C. and after brief centrifugation supernatants were incubated with anti-TrkA antibody for 24 hours at 4° C. with gentle rocking. Formed immunocomplexes were captured on protein G-Sepharose, eluted with SDS-PAGE sample buffer and analyzed by immunoblotting with antibody against phospho-TrkA receptor.

PC12 cells = settings: serum-free RPMI/0.2% BSA, collagen coated dishes, 16-17 hours
neuroblastoma N18 cells = assay: Neurite outgrowth assay in N18 cells; settings: soluble or immobilized on plastic (500 μg/ml coating), 17 hours
Protocol: 96-well microtiter plates were coated overnight at 4° C. with the TS or peptides or fragments thereof, or with control proteins laminin (Ln) or bovine serum albumin (BSA) at 500 μg/ml. After removing the compounds, the plates were further incubated with 1% BSA for 1 hour at room temperature and immediately used as substratum for PC12 or N18 (Prasad, K., Biol. Rev. Camb. Philos. Soc., 66:431-451 (1991)) cells in serum-free RPMI/0.2% BSA. Neurite outgrowth was measured using a phase-contrast microscope 17 hours later.

Row | Substance | survival of PC12^TrkA cells in serum-free medium (PC12^TrkA cells [1]) | suppression of apoptosis of PC12 cells or Schwann cells [2] | neurite extension / differentiation of PC12^TrkA cells (PC12^TrkA cells [3]) | Erk1/2 phosphorylation in PC12 cells (Erk1/2) | neurite outgrowth in PC12 cells (PC12 cells) | neurite outgrowth in N18 cells (neuroblastoma N18 cells)
1 | DSSAHGTPSTPA [peptide TR] | inactive; also recorded: did not significantly promoted cell survival; also recorded: did not support survival and neurite extension | did not inhibit apoptosis | did not spread and extend neurites; also recorded: did not support survival and neurite extension | did not activate Erk | did not induce neurite outgrowth; also recorded: did not promote neurite outgrowth | 
2 | laminin [reference compound] |  |  |  |  |  | induced
